Data published in ChEMBL document CHEMBL1201862, “PubChem BioAssay data set” (2004).
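Test compounds were applied to cells in 96-well plates for 48 hours at 5 doses. Abbreviation: GI50, concentration required for 50% inhibition of growth.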 Calls of active or inactive are those of the source. Cut-off read from the data, not from the text of the source: active = GI50 up to about 1.1 µM and inactive = higher.

Tests used:
Experiment in all cases: NCI anticancer screen, dose series, 48 h
[1] = system: MDA-MB-231
[2] = system: RPMI-8226
[3] = system: SNB-75
[4] = system: SK-MEL-5
[5] = system: SNB-19
[6] = system: PC-3
[7] = system: NCI-H522
[8] = system: MCF7
[9] = system: IGROV-1
[10] = system: Malme-3M
[11] = system: NCI-H23
[12] = system: CAKI-1
[13] = system: HL-60
[14] = system: HCC 2998
[15] = system: NCI/ADR-RES
[16] = system: UO-31
[17] = system: TK-10
[18] = system: SK-MEL-2
[19] = system: HCT-15
[20] = system: SF-295
[21] = system: UACC-257
[22] = system: K562
[23] = system: LOX IMVI
[24] = system: UACC-62
[25] = system: NCI-H226
[26] = system: COLO 205
[27] = system: MDA-MB-435
[28] = system: SK-OV-3
[29] = system: Hs-578T
[30] = system: CCRF-CEM
[31] = system: OVCAR-8
[32] = system: OVCAR-4
[33] = system: M14
[34] = system: MDA-N
[35] = system: U-251
[36] = system: A498
[37] = system: HCT-116
[38] = system: 786-0
[39] = system: ACHN
[40] = system: BT-549
[41] = system: MOLT-4
[42] = system: SR
[43] = system: NCI-H460
[44] = system: KM12
[45] = system: EKVX
[46] = system: HOP-62
[47] = system: SF-539
[48] = system: T47D
[49] = system: OVCAR-5
[50] = system: OVCAR-3
[51] = system: A549
[52] = system: HT-29
[53] = system: SN12C
[54] = system: SF-268
[55] = system: DU-145
[56] = system: SW-620
[57] = system: RXF 393
[58] = system: SK-MEL-28

Measured: GI50

Nc1c(C(=O)O)nnc2ccc(Cl)cc12
> 100 µM: [19]
inactive: [1] > 100 µM | [2] > 100 µM | [3] > 100 µM | [4] > 100 µM | [5] > 100 µM | [6] > 100 µM | [7] > 100 µM | [8] > 100 µM | [9] > 100 µM | [10] > 100 µM | [11] > 100 µM | [12] > 100 µM | [13] > 100 µM | [14] > 100 µM | [15] > 100 µM | [16] 94.8 µM | [17] > 100 µM | [18] > 100 µM | [20] > 100 µM | [21] > 100 µM | [22] > 100 µM | [23] > 100 µM | [24] > 100 µM | [25] 41.8 µM | [26] > 100 µM | [27] > 100 µM | [28] > 100 µM | [29] > 100 µM | [30] > 100 µM | [31] > 100 µM | [32] > 100 µM | [33] > 100 µM | [34] > 100 µM | [35] > 100 µM | [36] 58.6 µM | [37] > 100 µM | [38] > 100 µM | [39] > 100 µM | [40] > 100 µM | [41] > 100 µM | [42] > 100 µM | [43] > 100 µM | [44] > 100 µM | [45] > 100 µM | [46] > 100 µM | [47] > 100 µM | [48] > 100 µM | [49] > 100 µM | [50] > 100 µM | [51] > 100 µM | [52] > 100 µM | [53] > 100 µM | [54] > 100 µM | [55] > 100 µM | [56] > 100 µM

COc1cc(OCc2ccc3oc(=O)c(-c4ccccc4)nc3c2)cc(OC)c1OC
inactive: [1] > 100 µM | [2] > 100 µM | [3] > 100 µM | [4] > 100 µM | [5] > 100 µM | [6] > 100 µM | [7] > 100 µM | [8] > 100 µM | [9] > 100 µM | [10] > 100 µM | [11] > 100 µM | [14] > 100 µM | [15] > 100 µM | [16] > 100 µM | [17] > 100 µM | [18] > 100 µM | [20] > 100 µM | [21] > 100 µM | [22] > 100 µM | [23] > 100 µM | [24] > 100 µM | [25] > 100 µM | [26] > 100 µM | [27] > 100 µM | [28] > 100 µM | [29] > 100 µM | [30] > 100 µM | [31] > 100 µM | [32] > 100 µM | [33] > 100 µM | [34] > 100 µM | [35] > 100 µM | [36] > 100 µM | [37] > 100 µM | [38] > 100 µM | [39] > 100 µM | [40] > 100 µM | [41] > 100 µM | [42] > 100 µM | [43] > 100 µM | [46] > 100 µM | [47] > 100 µM | [48] 38.9 µM | [49] > 100 µM | [57] > 100 µM | [50] > 100 µM | [51] > 100 µM | [52] > 100 µM | [53] > 100 µM | [54] > 100 µM | [55] > 100 µM | [58] > 100 µM | [56] > 100 µM
> 100 µM: [19]
